Values of other authors in patent US20140213664A1, “PROCESSES, PRODUCTS AND METHODOLOGIES FOR MAKING AND USING NOVEL BIOADVANTAGED SWEETENERS” (priority 2013, published 2014).

Columns and labels:
[1] = tested on: STZ-induced diabetic rats
[2] = injected hypodermically

Row | Compound | HDL-cholesterol [1] | antihyperglycemic effect [1] | total cholesterol and triglyceride levels [1] | glycosuria [2]
1 | O=CC=Cc1ccccc1 [Cinnamaldehyde] | increasing | significant antihyperglycemic effect | lowering | –
2 | O=C(CCc1ccc(O)cc1)c1c(O)cc(O)cc1O[C@@H]1O[C@H](CO)[C@@H](O)[C@H](O)[C@H]1O [Phlorizin] | – | – | – | produces glycosuria
